According to DBAASP:
Converted amounts (≈) assume the structure as drawn. Each block holds one molecule with its values, some of them ahead of it.

Tests used:
Assay in all cases: ≥ marks a high value that may be exact or a test limit, other limits are often not marked, values filed in µg/mL are converted to µM
[1] = tested on: Escherichia coli O157:H7 ATCC 43895
Escherichia coli U16318 = tested on: Escherichia coli U16318
[2] = tested on: Cryptococcus neoformans B3501
[3] = tested on: Staphylococcus aureus B38302
[4] = tested on: Enterobacter cloacae ATCC 13047
[5] = tested on: Candida albicans ATCC 90028
[6] = tested on: Staphylococcus aureus ATCC 25923
Shigella dysenteriae = tested on: Shigella dysenteriae
Klebsiella pneumoniae = tested on: Klebsiella pneumoniae
Staphylococcus aureus 37 = tested on: Staphylococcus aureus 37
[7] = tested on: Klebsiella pneumoniae ATCC 700603
Escherichia coli 37 = tested on: Escherichia coli 37
Staphylococcus aureus 10 = tested on: Staphylococcus aureus 10
Escherichia coli 117 = tested on: Escherichia coli 117
[8] = tested on: Enterococcus faecalis ATCC 29212
[9] = tested on: Candida parapsilosis ATCC 22019
Pseudomonas aeruginosa = tested on: Pseudomonas aeruginosa
[10] = tested on: Pseudomonas aeruginosa ATCC 27853
[11] = tested on: Candida albicans ATCC 2002
[12] = tested on: Escherichia coli ATCC 25922
[13] = tested on: Pseudomonas aeruginosa CMCCB 1010
[14] = tested on: Pseudomonas aeruginosa 4677
Escherichia coli 5580 = tested on: Escherichia coli 5580
[15] = tested on: Streptococcus pneumoniae ATCC 49619
Salmonella typhimurium = tested on: Salmonella typhimurium
[16] = tested on: Pseudomonas aeruginosa 5106
Acinetobacter baumannii = tested on: Acinetobacter baumannii
[17] = tested on: Pseudomonas aeruginosa 3599
[18] = tested on: Enterobacter cloacae 2524
Escherichia coli 4530 = tested on: Escherichia coli 4530
[19] = tested on: Klebsiella pneumoniae 913
Escherichia coli 170 = tested on: Escherichia coli 170
[20] = tested on: Klebsiella pneumoniae ST258
[21] = tested on: Bacillus megaterium ATCC 19213
[22] = tested on: Staphylococcus epidermidis NBRC 12933
[23] = tested on: Staphylococcus aureus NBRC 12732
[24] = tested on: Bacillus subtilis NBRC 3513
[25] = tested on: Candida glabrata IOC 4565
[26] = tested on: Staphylococcus aureus ATCC 29213
[27] = tested on: Aspergillus fumigatus IOC 4526
Escherichia coli SBS 363 = tested on: Escherichia coli SBS 363
[28] = tested on: Cryptococcus neoformans IOC 4528
[29] = tested on: Trichosporon sp. IOC 4569
[30] = tested on: Trichophyton rubrum IOC 4527
[31] = tested on: Candida tropicalis IOC 4560
[32] = tested on: Candida albicans ATCC 36802
[33] = tested on: Cryptococcus neoformans ATCC 90112
Candida krusei IOC 4559 = tested on: Candida krusei IOC 4559
[34] = tested on: Candida albicans IOC 4558
[35] = tested on: Candida parapsilosis IOC 4564
[36] = tested on: Bacillus subtilis KCTC 1918
Proteus vulgaris = tested on: Proteus vulgaris
[37] = tested on: Escherichia coli KCTC 1682
[38] = tested on: Bacillus megaterium KCTC 1096
[39] = tested on: Pseudomonas aeruginosa KCTC 1637
[40] = tested on: Staphylococcus aureus KCTC 1621

Structure (SMILES): CC[C@H](C)[C@H](NC(=O)CN)C(=O)N[C@@H](CC(C)C)C(=O)N[C@@H](CCCCN)C(=O)N[C@H](C(=O)N[C@H](C(=O)N[C@@H](CCCCN)C(=O)N[C@@H](CO)C(=O)N[C@H](C(=O)N[C@@H](C)C(=O)N[C@@H](CO)C(=O)N[C@@H](CCCCN)C(=O)N[C@H](C(=O)N[C@@H](C)C(=O)N[C@@H](CC(N)=O)C(=O)N[C@H](C(=O)N[C@H](C(=O)N[C@@H](CCC(N)=O)C(=O)N[C@@H](CCCCN)C(=O)N[C@@H](CC(C)C)C(=O)N[C@@H](CCCCN)C(=O)N[C@@H](CCCN=C(N)N)C(=O)N[C@@H](CCCCN)C(=O)N[C@@H](C)C(=O)N[C@@H](CCCCN)C(=O)N[C@@H](CC(N)=O)C(=O)N[C@@H](C)C(=O)N[C@H](C(=O)O)C(C)C)C(C)C)[C@@H](C)O)C(C)C)[C@@H](C)CC)[C@@H](C)CC)[C@@H](C)O [GILKTIKSIASKVANTVQKLKRKAKNAV]
- MIC [14]: 6.2 µM (≈ 18.7 µg/mL)
- MIC [6]: > 16.6 µM
- MIC (Escherichia coli 5580): 1.6 µM (≈ 4.81 µg/mL)
- MIC [15]: ≥ 50 µM
- MIC (Salmonella typhimurium): 2.23 µM (≈ 6.7 µg/mL)
- MIC [16]: 12 µM (≈ 36.1 µg/mL)
- MIC (Acinetobacter baumannii): 3.1 µM (≈ 9.33 µg/mL)
- MIC [17]: ≥ 50 µM
- MIC [18]: 3.1 µM (≈ 9.33 µg/mL)
- MIC (Escherichia coli 4530): 3.1 µM (≈ 9.33 µg/mL)
- MIC [19]: 3.1 µM (≈ 9.33 µg/mL)
- MIC [10]: 8.31 µM (≈ 25 µg/mL)
- MIC (Escherichia coli 170): 0.8 µM (≈ 2.41 µg/mL)
- MIC [12]: 1.6 µM (≈ 4.81 µg/mL)
- MIC [20]: 16.6 µM (≈ 50 µg/mL)

Structure (SMILES): CC(C)C[C@H](NC(=O)[C@@H](N)CCCCN)C(=O)NCC(=O)N[C@@H](Cc1cnc[nH]1)C(=O)N[C@@H](Cc1cnc[nH]1)C(=O)NCC(=O)N[C@@H](CCCN=C(N)N)C(=O)N[C@@H](C)C(=O)N1CCC[C@H]1C(=O)N1CCC[C@H]1C(=O)O [KLGHHGRAPP]
- MIC [21]: ≥ 128 µM
- MIC [22]: ≥ 128 µM
- MIC [23]: ≥ 128 µM
- MIC [24]: ≥ 128 µM

Continued, values first:

- MIC [1]: ≥ 32 µM
- MIC (Escherichia coli U16318): ≥ 50 µM
- MIC [2]: 30 µM (≈ 36 µg/mL)
- MIC [3]: ≥ 50 µM
Structure (SMILES): CC(C)C[C@H](NC(=O)[C@H](C)N)C(=O)N[C@@H](Cc1c[nH]c2ccccc12)C(=O)N[C@@H](CCCCN)C(=O)N[C@H](C(=O)N[C@@H](CC(C)C)C(=O)N[C@@H](CC(C)C)C(=O)N[C@@H](CCCCN)C(=O)N[C@@H](CCCCN)C(=O)N[C@H](C(N)=O)C(C)C)[C@@H](C)O [ALWKTLLKKV]

- MIC [4]: 2.16 µM (≈ 2.5 µg/mL)
- MIC [5]: 17.3 µM (≈ 20 µg/mL)
- MIC [6]: 2.16 µM (≈ 2.5 µg/mL)
- MIC (Shigella dysenteriae): 4.32 µM (≈ 5 µg/mL)
- MIC (Klebsiella pneumoniae): 69.1 µM (≈ 80 µg/mL)
- MIC (Staphylococcus aureus 37): 4.32 µM (≈ 5 µg/mL)
- MIC [7]: 8.64 µM (≈ 10 µg/mL)
- MIC (Escherichia coli 37): 17.3 µM (≈ 20 µg/mL)
- MIC (Staphylococcus aureus 10): 8.64 µM (≈ 10 µg/mL)
- MIC (Escherichia coli 117): 4.32 µM (≈ 5 µg/mL)
- MIC [8]: 17.3 µM (≈ 20 µg/mL)
- MIC [9]: 4.32 µM (≈ 5 µg/mL)
- MIC (Pseudomonas aeruginosa): 8.64 µM (≈ 10 µg/mL)
- MIC [10]: 34.6 µM (≈ 40 µg/mL)
- MIC [11]: 8.64 µM (≈ 10 µg/mL)
- MIC [12]: 4.32 µM (≈ 5 µg/mL)
- MIC [13]: 17.3 µM (≈ 20 µg/mL)
Structure (SMILES): CC[C@H](C)[C@H](NC(=O)[C@@H](NC(=O)[C@@H]1CCCN1C(=O)[C@H](CC(C)C)NC(=O)[C@@H](N)Cc1ccccc1)[C@@H](C)CC)C(=O)NCC(=O)N[C@@H](CCCCN)C(=O)N[C@@H](CC(C)C)C(=O)N[C@@H](CC(C)C)C(=O)N[C@@H](CO)C(=O)NCC(=O)O [FLPIIGKLLSG]

- MIC [25]: ≥ 41.6 µM
- MIC [26]: > 41.6 µM
- MIC [27]: ≥ 52 µM
- MIC (Escherichia coli SBS 363): ≥ 41.6 µM
- MIC [28]: 4.41 µM (≈ 8.49 µg/mL)
- MIC [29]: ≥ 41.6 µM
- MIC [30]: ≥ 52 µM
- MIC [31]: ≥ 41.6 µM
- MIC [32]: ≥ 52 µM
- MIC [33]: 4.41 µM (≈ 8.49 µg/mL)
- MIC (Candida krusei IOC 4559): 29.4 µM (≈ 56.6 µg/mL)
- MIC [34]: ≥ 41.6 µM
- MIC [10]: > 41.6 µM
- MIC [35]: ≥ 41.6 µM
Structure (SMILES): CC[C@H](C)[C@H](NC(=O)[C@H](CCCCN)NC(=O)[C@H](CCC(=O)O)NC(=O)[C@H](CCCCN)NC(=O)[C@@H]1CCCN1C(=O)[C@H](Cc1ccccc1)NC(=O)[C@H](CO)NC(=O)[C@H](Cc1cnc[nH]1)NC(=O)CNC(=O)CNC(=O)[C@H](CCCCN)NC(=O)[C@H](CCCCN)NC(=O)[C@H](Cc1cnc[nH]1)NC(=O)[C@H](CO)NC(=O)[C@H](CCC(N)=O)NC(=O)[C@@H](N)CCCCN)C(=O)N[C@@H](CO)C(=O)O [KQSHKKGGHSFPKEKIS]

- MIC [36]: 1.56 µM (≈ 2.77 µg/mL)
- MIC (Proteus vulgaris): 3.12 µM (≈ 5.54 µg/mL)
- MIC [37]: 8.84 µM (≈ 15.7 µg/mL)
- MIC [38]: 3.12 µM (≈ 5.54 µg/mL)
- MIC [39]: 12.5 µM (≈ 22.2 µg/mL)
- MIC [40]: 6.25 µM (≈ 11.1 µg/mL)
Structure (SMILES): CC[C@H](C)[C@H](NC(=O)[C@H](CCCCN)NC(=O)[C@H](CCCCN)NC(=O)[C@H](Cc1ccccc1)NC(=O)[C@H](CC(C)C)NC(=O)[C@H](CCCCN)NC(=O)[C@H](Cc1c[nH]c2ccccc12)NC(=O)[C@@H](N)CCCCN)C(=O)N1CCC[C@H]1C(=O)N[C@@H](CC(C)C)C(=O)N[C@@H](C)C(=O)N[C@@H](CCCCN)C(=O)N[C@@H](CCCCN)C(=O)N[C@@H](Cc1ccccc1)C(N)=O [KWKLFKKIPLAKKF]
